From patent publication US20210062160A1, “THERAPEUTIC AND IMMUNOMODULATORY BACTERIOPHAGE FORMULATIONS AND METHODS FOR MAKING AND USING THEM” (priority 2017, published 2021)

Tests used:
MDCK cells [1] = test: Inhibition of T4 phage transcytosis across MDCK monolayers by chemical inhibitors; format: cell-based, canine; conditions: for Inhibitor transcytosis Median ± s.d.: T4 phages across MDCK pretreated 18 hrs: Brefeldin A 5 μgmL^−1, Wortmannin 100 nM, Bafilomycin 0.5 μM, Chloroquine 100 μM, W-7 100 μM, solvent 7.9 ± 3 × 10^4; for effect of inhibitor on phage transcytosis: T4 phages across inhibitor-treated MDCK cells vs solvent control
Procedure: All cells were seeded at a density of 0.5-1×10^6 cells per well and allowed to grow to confluency (3-5 days). For apical-to-basal transcytosis the apical wells were incubated in Hanks Buffered Salt Solution (HBSS) at pH 6.0 and basal cells in HBSS at pH 7.4 for two hours to mimic pH-dependent uptake (2). For basal-to-apical transcytosis the buffers were switched. Bacteriophages were applied with the HBBS pH 6.0 buffer, incubated with cells for two hours and phage from both apical and basal cell layers quantified by plating with bacterial host.
Permeation of phages throughout the eukaryotic cell. The mechanism of phage access to Eukaryotic cells remains ambiguous (22, 24, 29). […] Inhibition of phage transcytosis was reported as the percentage of phages transcytosed across inhibitor-treated cells, compared to cells treated with a solvent control (FIG. 3A and Table S3).
Before this invention, the mechanism of phage transcytosis across eukaryotic cells remained ambiguous, see e.g., Duerkop et al., 2013, Resident viruses and their interactions with the immune system, Nat Immunol 14:654-9; Merril, et al., 1996, Long-circulating bacteriophage as antibacterial agents, Proc Natl Acad Sci 93:3188-3192; Aronow, et al., 1964, Electron microscopy of in vitro endocytosis of T2 phage by cells from rabbit perioneal exudate, J Exp Med 120. […] Inhibition of phage transcytosis was reported as the percentage of phages transcytosed across inhibitor-treated cells compared to cells treated with a solvent control (FIG. 13).

MDCK cells [2] = test: Fluorescence-positive MDCK cells after treatment with labeled T4 phages; format: cell-based, canine; conditions: n=1008, mean
From the text: T4 phage were fluorescently labeled and visualized within MDCK cells (FIG. 4A-C).

Row | SMILES | Inhibitor transcytosis Median ± s.d. (MDCK cells [1]) | effect of inhibitor on phage transcytosis (MDCK cells [1]) | phages transcytosed compared to a solvent control (MDCK cells [1]; T4 phages across inhibitor-treated MDCK cells) | proportion of fluorescence-positive cells treated with BFA and labeled T4 phages (MDCK cells [2])
1 | NCCCCCCNS(=O)(=O)c1cccc2c(Cl)cccc12 [W-7] | 8.2 ± 1.1 × 10^4 | no significant treatment effects |  | 
2 | CO/C1=C\C(C)=C\[C@@H](C)[C@@H](O)[C@@H](C)C/C(C)=C/C=C/[C@H](OC)[C@@H]([C@@H](C)[C@@H](O)[C@H](C)[C@@]2(O)C[C@@H](O)[C@H](C)[C@@H](C(C)C)O2)OC1=O [Bafilomycin] | 1 ± .19 × 10^5 | no significant treatment effects |  | 
3 | COC[C@H]1OC(=O)c2coc3c2[C@@]1(C)C1=C(C3=O)[C@@H]2CCC(=O)[C@@]2(C)C[C@H]1OC(C)=O [Wortmannin] | 8.1 ± 2.9 × 10^4 |  |  | 
4 | C[C@H]1CCC/C=C/[C@@H]2C[C@H](O)C[C@H]2[C@H](O)/C=C/C(=O)O1 [Brefeldin A] | 2.3 ± 2.2 × 10^4 | significant but incomplete inhibition of transcytosis | 38.5% | 9.98%
5 | CCN(CC)CCCC(C)Nc1ccnc2cc(Cl)ccc12 (centres unmarked) [Chloroquine] | 5.3 ± 2.7 × 10^4 | no significant treatment effects |  | 
